Binding and Kd data for four molecules are collected here from paper PMC6426286 (2019).

Test [1] deals with G. violaceus P1 stem-loop used for crystallization (RNA, riboswitch, 5-bromocytidine at 17) GGUGGGGACGACCCCACC
Description: X-ray crystallography, 1.54 Å. As to conditions: 100 mM KCl, 2 mM MgCl2 (RNA folding); ligand soaked into ligand-free crystals; 5 mM HEPES pH 7.6 (RNA folding).

Test [2] concerns GVP1 (guanidine-II riboswitch P1 stem-loop) (RNA, riboswitch) GGUGGGGACGACCCCACC
Description: ITC. The conditions noted are these: 100 mM KCl, 10 mM MgCl2; 40 mM HEPES pH 7.2, 298 K; one-set-of-sites fit.

The test system of test [3] is GVP2 (guanidine-II riboswitch P2 stem-loop) (RNA, riboswitch) GCGGGGACGACCCCGC
Description: ITC. As to conditions: 100 mM KCl, 10 mM MgCl2; 40 mM HEPES pH 7.2, 298 K; one-set-of-sites fit.

Test [4] relates to GVP1P2 (complete guanidine-II riboswitch) (RNA, riboswitch) GGUGAGGACGACCUCACCCUUCGCAAAGUUUCGCGGGGACGACCCCGC
Description: ITC. As to conditions: 100 mM KCl, 10 mM MgCl2; 40 mM HEPES pH 7.2, 298 K; one-set-of-sites fit.

Test [5] concerns G. violaceus P1 stem-loop used for crystallization (RNA, riboswitch, 5-bromocytidine at 17) GGUGGGGACGACCCCACC
Description: X-ray crystallography, 1.66 Å. The conditions noted are these: 100 mM KCl, 2 mM MgCl2 (RNA folding); ligand soaked into ligand-free crystals; 5 mM HEPES pH 7.6 (RNA folding).

For test [6] the test system is unchanged. Description: X-ray crystallography, 1.41 Å. As to conditions: 100 mM KCl, 2 mM MgCl2 (RNA folding); ligand soaked into ligand-free crystals; 5 mM HEPES pH 7.6 (RNA folding).

In the case of `CCNC(=N)N`, in test [1], the binding result was “yes”.

In general, Kd refers to a measure of binding affinity in units of concentration. Low values mean higher affinity, high ones lower affinity. With `N=C(N)NCCCCNC(=N)N`, the Kd in test [2] was found to be 4.7 ± 0.2 µM; in test [3], 5.9 ± 4 µM; in test [4], 2.2 ± 0.5 µM. In addition, the binding entry in test [5] is on record as “yes”.

Consider `N=C(N)N`, for which the Kd in test [2] turned out to be 68 ± 6 µM; in test [3], 66 ± 8 µM; in test [4], 33 ± 4 µM.

Regarding `N=C(N)NCCCCCNC(=N)N`, in test [4], the Kd came out at 5.1 ± 0.8 µM. Further, in test [6], the binding result is on record as “yes”.
